Results on 14 compounds are retold here after article PMC12766730, “Controlled Self-Immolative Release of β‑Lapachone via an Optimized para-Hydroxybenzyl Linker for Targeted Pancreatic Cancer Therapy” (Journal of the American Chemical Society, 2025).

Like-named read-outs stand apart in the source and are kept apart here.

For one data set, the system named is AsPC-1. Nature of the data set: PDAC cell viability after 72 h of treatment, AsPC-1. Conditions: for IC50: Homo sapiens. Format: cell-based. The protocol: (§1) All ortho-quinone prodrug derivatives were tested on two pancreatic cancer cell lines, PANC-1 and AsPC-1, to assess efficacy in cell killing (Figures , S88–89, S91, Tables , and S8.1). Exogenous β-glucuronidase was added to the cell media to mimic the extracellular enzyme present in the TME. […] Those derivatives with release rates slower than that of 16a, like 16e, had less efficacy in cells comparatively (Table ).
(§2) 7 PDAC cell viability with prodrug treatment. Representative PANC-1 (a) and AsPC-1 (b) cell viability data of four β-lapachone prodrug derivatives after 72 h of treatment with exogenous β-glucuronidase added. Panels (c, d) show the toxicity of functional prodrugs up to 100 μM in PANC-1 (c) and AsPC-1 (d) cells without exogenous β-glucuronidase enzyme present after 72 h incubation.
(§3) To assess the TW of the prodrug derivatives, we tested each of them in both the PANC-1 and AsPC-1 cell lines at up to 100 μM without the β-glucuronidase enzyme present. In agreement with the HPLC stability assay data, we saw no toxicity in all stable prodrug derivatives up to this concentration (Figure c,d). […] In comparison, all the stable glucuronide prodrug derivatives retained 100% viability at 100 μM. […] It is generally considered that a drug has a good therapeutic safety profile if the TI is greater than 10, which our best derivatives far exceed, signaling that our prodrug is safe to deliver systemically in future in vivo experiments and should not cause any adverse effects in areas where β-glucuronidase is not overexpressed. ,

Data set [1] can be described thus: HPLC stability assay of prodrugs in buffers pH 3, 5, 7, 7.4 (PBS), 9 at 37 °C for 72 h without trigger. It counts as physicochemical. Conditions: for stability of the prodrug without triggering enzyme: 37 °C, 72 h, pH 3–9; for premature lapachone release, percent of total prodrug: 72 h at 37 °C, no H2O2. The protocol: The diastereomeric mixture of each β-glucuronide–PHB-β-lapachone prodrug (16a–j) and PAB derivative 22 were then tested for stability in citrate-phosphate buffers across a range of pHs (3, 5, 7, 7.4 (PBS), 9) via an HPLC stability assay. For derivatives 16a, 16b, 16d, 16e, 16h, and 16j, when no β-glucuronidase enzyme was added, both diastereomers of 16 were fully stable at 37 °C for 72 h (Figures a,d, S63, S64, S66–68, S71, and S73). […] This premature release was greatest at acidic pH 3 for 16g, with very minimal lapachone release detected at pH 5–9 (Figure c). The released lapachone was quantified and compared to the starting concentration of each prodrug to calculate the percent of the prodrug that had been prematurely released (Figures f,g, S76). […] Therefore, a trade-off exists between ring activation, improving the release rate from 3 while also decreasing prodrug stability, and it rendered 16g clinically disadvantageous.  5 Stability of prodrugs is pH dependent. The representative HPLC traces for (a) a stable prodrug 16a and (b) an unstable prodrug 16g are shown after incubation at 37 °C in pH 7.4 PBS buffer. […] (c) The area of the lapachone peak for 16g normalized to the IS was plotted, displaying substantial growth over time at pH 3. […] For panels c–g, each value is plotted as the mean ± SD of three replicates. The HPLC traces (Figures S50–S62) and peak area graphs (Figures S63–S75) for all other derivatives can be found in the Supporting Information. The stability of 26 was also evaluated from pH 3–9 (Figures d,f–h S86–S87). […] This degradation was the largest at pH 9, with a measurable decrease in the prodrug peak area after 72 h (Figure g). The lapachone released after 72 h was quantified using a standard curve (Tables S6.1–S6.2). At pH 3 and 5, approximately 0.2% of the total prodrug lapachone had been released.

The next data set concerns PANC-1. As to the kind of experiment: PDAC cell viability after 72 h of treatment, PANC-1. It counts as cell-based. On the procedure:
as §1, §2, §3

A short description of data set [2]: Release of β-lapachone (1) from deprotected PHB/PAB linkers (3 or 25) in citrate-phosphate buffers pH 3–10, analytical HPLC. It counts as physicochemical. Particulars: 3f vs 3a; 25 vs 4. The protocol: First, the purified mixture of two prodrug diastereomers (16a–j) for each PHB derivative was incubated with β-glucuronidase. This enabled full removal of the glucuronide moiety from both diastereomers of the prodrug within 2–15 min, leaving a mixture of two PHB-β-lapachone enantiomers (3a–j, Figure c). For PAB compound 22, penicillin G amidase was used in place of β-glucuronidase to give a mixture of two PAB-β-lapachone enantiomers (25). The 3 (or 25) solution was then spiked into citrate-phosphate buffers from pH 3–10, and release of 1 from 3 (or 25) was measured at various time points by analytical HPLC. A single peak for the two enantiomers of 3 was observed after glucuronide removal, and thus the measured k obs was for both enantiomers in the mixture.
3 Release rate comparison for PHB and PAB prodrugs. The mechanisms of release for the β-glucuronide–PHB prodrug derivatives (a) and the PAB derivative (b) are shown. β-glucuronidase or penicillin G amidase deprotects the PHB or PAB linkers, yielding 3 or 25, respectively. A 1,6-elimination then occurs, releasing the hydroquinone form of β-lapachone, which then oxidizes into the ortho-quinone. (c) The substituents on the PHB/PAB linker for each derivative are shown and classified into which strategy they employed, lowering phenolate pK a or stabilizing the elimination TS. BLap = β-lapachone in its α-hydroxy ketol form (refer to panel a). The predicted pK a values are also shown, calculated using MolGpKa. (d) The representative HPLC traces of a release experiment for 3g at pH 7 are shown (RT: retention time) normalized to the warfarin (WF) internal standard (IS, RT = 11.6 min). The peak for 3g (RT = 12.5 min) decreases while the peak for 1 (RT = 10.8 min) increases over time. The traces for all other derivatives at each pH are included in Figures S10–S20, S34–S45. (e) The calculated k obs values from these release kinetic experiments for each PHB derivative are plotted versus pH on a logarithmic scale. Derivatives 3a–e were designed to lower the PHB phenol pK a, while derivatives 3f–j were designed to stabilize the 1,6-elimination TS. (f) The first-order reaction rate constants of the PAB derivatives 4 (pink) and 25 (purple) are plotted together with 3a (black) and the best-performing PHB derivatives 3f (cyan) and 3i (dark green) for direct comparison. The derivations of the plotted first-order k obs values from linearized initial velocities measured in triplicate are shown in Figures S23–S33. […]
Over time, the intensity of the 3/25 peak decreased, while the intensity of the 1 peak increased (Figure d). A standard curve for β-lapachone (Figure S22) was prepared, enabling quantification of the released β-lapachone.

[3] abbreviates: ASPC1, exogenous β-glucuronidase added, average ± SD of biological replicates, read-out: AsPC-1 IC50.
[4] abbreviates: Homo sapiens, PANC-1, exogenous β-glucuronidase added, average ± SD of biological replicates, read-out: PANC-1 IC50.
The mark [5] stands for this setting: ASPC1, exogenous β-glucuronidase added, representative experiment, read-out: IC50 on AsPC-1, representative viability data (Figure 7b).
Setting [6] is: Homo sapiens, PANC-1, exogenous β-glucuronidase added, representative experiment, read-out: IC50 on PANC-1, representative viability data (Figure 7a).
The mark [7] stands for this setting: exogenous β-glucuronidase added, average ± SD of biological replicates.

What is called IC50 is the concentration that gives 50% inhibition. Turning to `COc1cc(O[C@@H]2O[C@H](C(=O)O)[C@@H](O)[C@H](O)[C@H]2O)cc(OC)c1CC1(O)C(=O)C2=C(OC(C)(C)CC2)c2ccccc21` (mixture of isomers) [16g], the concentration for half-maximal inhibition (IC50) was 1.6 ± 0.6 µM with AsPC-1 (setting [3]); 68 µM in the data set with AsPC-1 (ASPC1, no enzyme, value printed in the picture, read-out: IC50, prodrug toxicity without β-glucuronidase on AsPC-1 (Figure 7d)); 75 ± 7 µM with AsPC-1 (ASPC1, no release-triggering enzyme, tested up to 100 μM, read-out: IC50 in AsPC-1 without exogenous β-glucuronidase); 1.2 ± 0.3 µM in the data set with PANC-1 (setting [4]); 20 µM in the data set on PANC-1 (Homo sapiens, PANC-1, no enzyme, value printed in the picture, read-out: IC50, prodrug toxicity without β-glucuronidase on PANC-1 (Figure 7c)); 26 ± 6 µM in the data set on PANC-1 (Homo sapiens, PANC-1, no release-triggering enzyme, tested up to 100 μM, read-out: IC50 in PANC-1 without exogenous β-glucuronidase). In data set [1], the “stability of the prodrug without triggering enzyme” value was “trace β-lapachone release was detected”.
As for `CCCN(C)S(=O)(=O)c1cc(CC2(O)C(=O)C3=C(OC(C)(C)CC3)c3ccccc32)ccc1O[C@@H]1O[C@H](C(=O)O)[C@@H](O)[C@H](O)[C@H]1O` (single isomer, unassigned) [16e], in data set [1], the “stability of the prodrug without triggering enzyme” value was “fully stable”.
In the case of `COc1cc(O)ccc1CC1(O)C(=O)C2=C(OC(C)(C)CC2)c2ccccc21` (centres unmarked) [3f], in data set [2], the “release rate faster than unsubstituted parent” value is reported as “around 2 orders of magnitude”.
`CC1(C)CCC2=C(O1)c1ccccc1C(O)(Cc1ccc(O[C@@H]3O[C@H](C(=O)O)[C@@H](O)[C@H](O)[C@H]3O)cc1)C2=O` (some centres unmarked) [16a]: the IC50 in the data set on AsPC-1 (setting [3]) was 19 ± 3 µM; with AsPC-1 (setting [5]), 16 µM; with PANC-1 (setting [4]) it was 9.6 ± 0.9 µM; in the data set on PANC-1 (setting [6]), 11 µM. The “stability of the prodrug without triggering enzyme” value in data set [1] is given as “fully stable”.
In the case of `CC1(C)CCC2=C(O1)c1ccccc1C(O)(Cc1cc(F)c(O[C@@H]3O[C@H](C(=O)O)[C@@H](O)[C@H](O)[C@H]3O)c(F)c1)C2=O` (some centres unmarked) [16b], the IC50 was 24 µM with AsPC-1 (setting [3]) and 11 ± 2 µM in the data set on PANC-1 (setting [4]). Besides, the “stability of the prodrug without triggering enzyme” value in data set [1] is listed as “fully stable”.
Consider `CC1(C)CCC2=C(O1)c1ccccc1C(O)(Cc1c(F)c(F)c(O[C@@H]3O[C@H](C(=O)O)[C@@H](O)[C@H](O)[C@H]3O)c(F)c1F)C2=O` (some centres unmarked) [16c], for which the “AsPC-1 IC50” value in the data set with AsPC-1 (setting [7]) was “Inactive”. For the same compound, the “stability of the prodrug without triggering enzyme” value in data set [1] is on record as “trace β-lapachone release was detected”. Besides, the “PANC-1 IC50” value in the data set on PANC-1 (setting [7]) is recorded as “Inactive”.
Regarding `CC1(C)CCC2=C(O1)c1ccccc1C(O)(Cc1c(F)cc(O[C@@H]3O[C@H](C(=O)O)[C@@H](O)[C@H](O)[C@H]3O)cc1F)C2=O` (some centres unmarked) [16d], in data set [1], the “stability of the prodrug without triggering enzyme” value is “fully stable”. The IC50 with PANC-1 (setting [4]) amounted to 21 ± 3 µM.
For `COc1cc(CC2(O)C(=O)C3=C(OC(C)(C)CC3)c3ccccc32)cc(OC)c1O[C@@H]1O[C@H](C(=O)O)[C@@H](O)[C@H](O)[C@H]1O` (some centres unmarked) [16h], the half-maximal inhibitory concentration (IC50) in the data set on AsPC-1 (setting [3]) worked out at 3.2 ± 1.7 µM; with PANC-1 (setting [4]) it was 1.2 ± 0.4 µM. Further, the “stability of the prodrug without triggering enzyme” value in data set [1] was “fully stable”.
Take `CC(c1ccc(O[C@@H]2O[C@H](C(=O)O)[C@@H](O)[C@H](O)[C@H]2O)cc1)C1(O)C(=O)C2=C(OC(C)(C)CC2)c2ccccc21` (some centres unmarked) [16i]: the concentration for half-maximal inhibition (IC50) with AsPC-1 (setting [3]) was 0.9 ± 0.5 µM; in the data set with AsPC-1 (setting [5]), 0.5 µM; in the data set with PANC-1 (setting [4]) it was 0.8 ± 0.5 µM; in the data set on PANC-1 (setting [6]), 0.3 µM. Moreover, the “stability of the prodrug without triggering enzyme” value in data set [1] is “trace β-lapachone release was detected”.
Consider `COCCOc1cc(O[C@@H]2O[C@H](C(=O)O)[C@@H](O)[C@H](O)[C@H]2O)ccc1CC1(O)C(=O)C2=C(OC(C)(C)CC2)c2ccccc21` (some centres unmarked) [16j], for which the IC50 was determined as 2.8 ± 1 µM in the data set on AsPC-1 (setting [3]) and 1.1 ± 0.4 µM with PANC-1 (setting [4]). In addition, in data set [1], the “stability of the prodrug without triggering enzyme” value is reported as “fully stable”.
For the compound `CC1(C)CCC2=C(O1)c1ccccc1C(=O)C2=O` [compound 1, β-lapachone, reference compound], the half-maximal inhibitory concentration (IC50) with AsPC-1 (setting [3]) was found to be 5.4 ± 0.7 µM; with AsPC-1 (setting [5]) it was 4.7 µM; in the data set with PANC-1 (setting [4]) it was 1.8 ± 0.2 µM.
On to `COc1cc(NC(=O)Cc2ccccc2)ccc1CC1(O)C(=O)C2=C(OC(C)(C)CC2)c2ccccc21` (centres unmarked) [compound 22], for which the “stability of the prodrug without triggering enzyme” value in data set [1] is “trace β-lapachone release was detected”.
On to `CC1(C)CCC2=C(O1)c1ccccc1C(O)(Cc1ccc(B(O)O)cc1)C2=O` (centres unmarked) [compound 26, reference compound], for which the “premature lapachone release, percent of total prodrug” value was “approximately 0.2%” in data set [1] (pH 3); “approximately 0.2%” in data set [1] (pH 5); ~0.6% in data set [1] (pH 7); ~2.3% in data set [1] (pH 7.4); ~10.9% in data set [1] (pH 9).
With `CC1(C)CCC2=C(O1)c1ccccc1C(O)(Cc1ccccc1)C2=O` (centres unmarked) [compound 27, reference compound], the IC50 in the data set on PANC-1 (exogenous β-glucuronidase added, average ± SD of biological replicates, read-out: PANC-1 IC50) was 70 µM; in the data set with PANC-1 (no release-triggering enzyme, tested up to 100 μM, read-out: IC50 in PANC-1 without exogenous β-glucuronidase), 70 µM.
